Reference: PubChem BioAssay AID2658 (Sanford-Burnham Center for Chemical Genomics, 2010)
Where “and” joins values, the source holds several entries; their conditions need not be identical. Equal values may be shown once. Calls of active or inactive are those of the source. How the calls were made is not given here.

target: Ubiquitin-conjugating enzyme E2 N (Homo sapiens) (UniProt P61088); assay: inhibition of Ubc13-driven ubiquitin chain assembly – biochemical, TR-FRET, Uev1a, selectivity assay, SAR follow-up (AID 2658); conditions: Ubc13/Uev1a polyubiquitination, in vitro
Sequence (P61088 whole entry, looked up): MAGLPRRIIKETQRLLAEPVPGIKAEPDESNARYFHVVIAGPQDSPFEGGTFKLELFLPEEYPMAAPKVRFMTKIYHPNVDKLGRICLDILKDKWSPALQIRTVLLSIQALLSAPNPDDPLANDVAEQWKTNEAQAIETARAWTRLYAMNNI

SMILES | IC50
C=CCn1c(NC(=O)c2ccccc2Cl)c(C#N)c2nc3ccccc3nc21 | > 100 µM (inactive)
Cc1ccsc1C=Nc1ccc(O)cc1 | > 100 µM (inactive)
Cc1ccsc1C=Nc1ccc(C(N)=O)cc1 | > 100 µM (inactive)
CCN(CC)C(=O)COC(=O)c1cc(-c2ccco2)nc2ccccc12 | > 100 µM (inactive)
Cc1[nH][nH]c(=O)c1C(c1ccc(-c2cccc(C(=O)O)c2)o1)c1c(C)[nH][nH]c1=O | > 100 µM (inactive)
COC(=O)c1c(-c2ccccc2)csc1NC(=O)/C=C/c1cccs1 | > 100 µM (inactive)
Cc1ccc(O)c(N=Cc2cccs2)c1 | > 100 µM (inactive)
S=c1[nH]nc(-c2cc(-c3ccccc3)n[nH]2)n1N=Cc1ccccc1 | > 100 µM (inactive)
COc1cc(-c2n[nH]c(=S)n2/N=C/c2cccn2C)cc(OC)c1OC | > 100 µM (inactive)
COc1ccc2c(c1)C(NC(C)=O)C(=O)N2CCN1CCOCC1 (stereo not given) | 86.1 µM
COc1ccccc1COC(=O)COC(=O)c1cc(-c2ccco2)nc2ccccc12 | 68.2 µM
Cc1[nH][nH]c(=O)c1C(c1ccc(-c2ccc(C(=O)O)cc2)o1)c1c(C)[nH][nH]c1=O | > 100 µM (inactive)
Cc1ccc(C=Nc2ccccc2C(N)=O)s1 | > 100 µM (inactive)
S=c1[nH]nc(-c2cc(-c3ccccc3)n[nH]2)n1N=Cc1c(Cl)cccc1Cl | > 100 µM (inactive)
COc1ccc(C=NNc2cc(N3CCCC3)nc(N3CCCC3)n2)cc1 | 53.8 µM
CC(=NOCc1nc2ccccc2c(=O)n1N=Cc1cc([N+](=O)[O-])ccc1O)c1ccccc1 | > 100 µM (inactive)
Cc1[nH][nH]c(=O)c1C(c1ccc(-c2ccc(F)cc2)o1)c1c(C)[nH][nH]c1=O | > 100 µM (inactive)

Other lines, results leading:

IC50 | SMILES
> 100 µM (inactive) | CCCCn1c(NC(=O)c2ccc(Br)o2)c(S(=O)(=O)c2ccccc2)c2nc3ccccc3nc21
> 100 µM (inactive) | O=C1c2oc3ccccc3c(=O)c2C(c2ccc(O)cc2)N1c1nccs1 (stereo not given)
> 100 µM (inactive) | CCN(CC)S(=O)(=O)c1ccc(O)c(NC(=O)c2cc(-c3cc(OC)c(OC)c(OC)c3)nc3ccccc23)c1
81.1 µM | Cc1ccccc1CNC(=O)COC(=O)c1cc(-c2ccco2)nc2ccccc12
> 100 µM (inactive) | O=C(COC(=O)c1cc(-c2ccco2)nc2ccccc12)NCc1ccccc1Cl
> 100 µM (inactive) | O=c1c2ccccc2nc(COc2ccccc2)n1N=Cc1cc([N+](=O)[O-])ccc1O
> 100 µM (inactive) | Nc1ccc2c(c1)C1C=CCC1C(c1ccccc1)N2 (stereo not given)
> 100 µM (inactive) | COc1cc(C2c3c(oc4ccccc4c3=O)C(=O)N2c2nccs2)ccc1O (stereo not given)
26.1 µM and 31.2 µM | O=C(N/N=C/c1ccc(F)cc1)c1cc(-c2ccco2)nc2ccccc12
> 100 µM (inactive) | CCCCn1c(NS(=O)(=O)c2ccccc2)c(S(=O)(=O)c2ccc(C)cc2)c2nc3ccccc3nc21
> 100 µM (inactive) | O=S(=O)(Nc1ccccc1F)c1ccc2c(c1)C1C=CCC1C(c1ccc(F)cc1)N2 (stereo not given)
> 100 µM (inactive) | Cc1cccc(Nc2cc3ccccc3c(=O)[nH]2)c1
16.7 µM and > 100 µM (inactive) | COc1ccccc1NC(=O)COC(=O)c1cc(-c2ccco2)nc2ccccc12
86.6 µM | COc1ccc(CNC(=O)COC(=O)c2cc(-c3ccc(C)o3)nc3ccccc23)cc1
> 100 µM (inactive) | COc1ccccc1NC(=O)Cn1c(O)c(N=NC(=O)c2ccccc2O)c2ccccc21
> 100 µM (inactive) | Cc1ccc(C2Nc3ccc(C(=O)O)cc3C3C=CCC32)cc1 (stereo not given)
> 100 µM (inactive) | O=C(COC(=O)c1cc(-c2ccco2)nc2ccccc12)NCc1ccccc1
> 100 µM (inactive) | Cc1cccc2c(N=Nc3ccc(S(=O)(=O)Nc4cccc(Cl)c4)cc3[N+](=O)[O-])c(O)[nH]c12
72.5 µM | CC(NC(=O)COC(=O)c1cc(-c2ccco2)nc2ccccc12)c1ccc(F)cc1 (stereo not given)
> 100 µM (inactive) | S=c1[nH]nc(-c2cc(-c3ccccc3)n[nH]2)n1N=Cc1cccc(Cl)c1
65 µM | COc1ccc(CCNC(=O)c2cc(-c3ccco3)nc3ccccc23)cc1
53.4 µM | COc1ccc(NC(=O)c2cc(-c3ccco3)nc3ccccc23)cc1S(=O)(=O)N1CCOCC1
33.1 µM | COc1ccc(CNC(=O)COC(=O)c2cc(-c3cccs3)nc3ccccc23)cc1
